# Results: patent US10183943B2, “Heterocyclic compounds and their use in preventing or treating bacterial infections” (MUTABILIS, priority 2015, dated 2019)
# Structures can show the parent of a compound that is named as a salt.
# Columns and labels:
# [1] = target: T1, TEM-1 (Escherichia coli, UniProt P62593); assay: β-lactamase inhibitory activity, determination of IC50 (nitrocefin hydrolysis); format: biochemical
# T1 construct: made in house; host or cells: E. coli
# [2] = target: T2, SHV-1 (Klebsiella pneumoniae, UniProt P0AD64); assay: as above; format: biochemical
# T2 construct: made in house; host or cells: E. coli
# T2 sequence (P0AD64 22-286): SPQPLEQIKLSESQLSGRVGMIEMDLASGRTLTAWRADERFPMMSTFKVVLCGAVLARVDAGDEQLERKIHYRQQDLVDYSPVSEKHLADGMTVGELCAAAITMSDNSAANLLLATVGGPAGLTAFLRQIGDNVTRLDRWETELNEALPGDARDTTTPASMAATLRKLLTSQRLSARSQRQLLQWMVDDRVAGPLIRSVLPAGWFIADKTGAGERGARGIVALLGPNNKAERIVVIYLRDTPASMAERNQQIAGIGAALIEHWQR
# [3] = target: T3, CTX-M-15 (Escherichia coli, UniProt Q9EXV5); assay: as above; format: biochemical; details: class (A); nitrocefin 200 μM, 30 min pre-incubation; read-out: IC50 β-lactamase CTX-M-15
# T3 construct: made in house; host or cells: E. coli
# T3 sequence (Q9EXV5 entry or part of it): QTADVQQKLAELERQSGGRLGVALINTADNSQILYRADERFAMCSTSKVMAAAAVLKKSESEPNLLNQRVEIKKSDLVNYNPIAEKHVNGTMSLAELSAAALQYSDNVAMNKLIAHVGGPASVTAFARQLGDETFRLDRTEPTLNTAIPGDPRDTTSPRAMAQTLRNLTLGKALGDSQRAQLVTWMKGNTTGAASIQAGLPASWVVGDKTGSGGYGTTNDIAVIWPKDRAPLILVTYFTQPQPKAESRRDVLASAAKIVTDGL
# [4] = target: T4, KPC-2 (Klebsiella pneumoniae, UniProt Q9F663); assay: as above; format: biochemical; details: class (A); nitrocefin 200 μM, 30 min pre-incubation; read-out: IC50 β-lactamase KPC-2
# T4 construct: made in house; host or cells: E. coli
# T4 sequence (Q9F663 25-293 limits assumed): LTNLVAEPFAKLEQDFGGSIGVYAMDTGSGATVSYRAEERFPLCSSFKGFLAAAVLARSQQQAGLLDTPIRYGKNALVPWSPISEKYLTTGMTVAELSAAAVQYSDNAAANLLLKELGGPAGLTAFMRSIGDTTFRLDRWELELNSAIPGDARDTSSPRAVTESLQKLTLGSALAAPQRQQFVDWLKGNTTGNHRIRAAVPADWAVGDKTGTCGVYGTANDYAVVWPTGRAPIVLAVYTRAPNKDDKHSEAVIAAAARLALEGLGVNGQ
# [5] = target: T5, OXA-1 (Escherichia coli, UniProt P13661); assay: as above; format: biochemical; details: class (D); nitrocefin 200 μM, 30 min pre-incubation; read-out: IC50 β-lactamase OXA-1
# T5 construct: made in house; host or cells: E. coli
# T5 sequence (P13661 26-276): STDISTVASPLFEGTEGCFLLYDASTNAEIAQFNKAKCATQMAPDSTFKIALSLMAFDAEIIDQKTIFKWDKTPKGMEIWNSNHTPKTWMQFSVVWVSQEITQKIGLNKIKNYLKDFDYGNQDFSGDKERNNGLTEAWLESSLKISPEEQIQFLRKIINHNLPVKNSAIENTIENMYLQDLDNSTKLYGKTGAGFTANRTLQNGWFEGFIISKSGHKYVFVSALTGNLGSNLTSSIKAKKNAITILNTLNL
# [6] = target: T6, OXA-11 (Pseudomonas aeruginosa, UniProt Q06778); assay: as above; format: biochemical
# T6 construct: made in house; host or cells: E. coli
# T6 sequence (Q06778 21-266): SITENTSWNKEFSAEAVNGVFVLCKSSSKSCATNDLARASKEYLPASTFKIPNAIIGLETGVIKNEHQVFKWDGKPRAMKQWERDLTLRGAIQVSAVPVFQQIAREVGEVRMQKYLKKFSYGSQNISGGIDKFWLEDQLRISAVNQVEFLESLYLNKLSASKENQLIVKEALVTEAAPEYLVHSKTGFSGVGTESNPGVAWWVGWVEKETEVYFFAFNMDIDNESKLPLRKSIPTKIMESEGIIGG
# [7] = target: T7, OXA-15 (Pseudomonas aeruginosa, UniProt Q51574); assay: biochemical
# T7 construct: made in house; host or cells: E. coli
# T7 sequence (Q51574 22-275): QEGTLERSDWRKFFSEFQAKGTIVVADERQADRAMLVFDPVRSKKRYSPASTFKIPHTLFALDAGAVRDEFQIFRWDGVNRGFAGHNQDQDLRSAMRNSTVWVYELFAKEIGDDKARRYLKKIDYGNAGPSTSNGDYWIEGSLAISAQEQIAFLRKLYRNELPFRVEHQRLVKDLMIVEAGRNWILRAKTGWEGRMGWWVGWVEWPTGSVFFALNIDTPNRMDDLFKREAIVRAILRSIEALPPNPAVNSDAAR
# [8] = target: T8, OXA-48 (Klebsiella pneumoniae, UniProt Q6XEC0); assay: β-lactamase inhibitory activity, determination of IC50 (nitrocefin hydrolysis); format: biochemical; details: class (D); nitrocefin 200 μM, 30 min pre-incubation; read-out: IC50 β-lactamase OXA-48
# T8 construct: made in house; host or cells: E. coli
# T8 sequence (Q6XEC0 23-265 limits assumed): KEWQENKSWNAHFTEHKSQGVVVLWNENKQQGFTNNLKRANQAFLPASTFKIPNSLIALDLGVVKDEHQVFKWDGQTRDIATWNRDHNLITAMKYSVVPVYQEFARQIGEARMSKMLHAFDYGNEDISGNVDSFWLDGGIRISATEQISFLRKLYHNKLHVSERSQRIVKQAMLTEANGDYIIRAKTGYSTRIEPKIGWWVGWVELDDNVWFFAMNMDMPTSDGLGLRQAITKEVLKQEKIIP
# [9] = system: E. cloacae P99 (AmpC); assay: MIC of compounds alone, broth microdilution; format: cell-based; details: Enterobacter cloacae; strain P99 (E. cloacae); read-out: MIC compounds of the invention alone
# Description: (§1) Method 2: MIC of Compounds and Synergy with Ceftazidime Against Bacterial Isolates (Table 2 and 3)
# (§2) Compounds of the present invention were assessed against genotyped bacterial strains alone or in combination with the β-lactam ceftazidime (CAZ). In the assays, MICs of said compounds, or of ceftazidime at fixed concentrations of said compounds were determined by the broth microdilution method according to the Clinical Laboratory Standards Institute (CLSI-M7-A7). Briefly, compounds alone according to the invention were prepared in DMSO and spotted (2 μL each) on sterile polystyrene plates (Corning, 3788). Compounds and ceftazidime dilutions were prepared in DMSO and spotted (1 μL each) on sterile polystyrene plates (Corning, 3788). Log phase bacterial suspensions were adjusted to a final density of 5×10^5 cfu/mL in cation-adjusted Mueller-Hinton broth (Becton-Dickinson) and added to each well (98 μL). Microplates were incubated for 16-20 h at 35° C. in ambient air. The MIC of the compounds was defined as the lowest concentration of said compounds that prevented bacterial growth as read by visual inspection. The MIC of ceftazidime at each compound concentration was defined as the lowest concentration of ceftazidime that prevented bacterial growth as read by visual inspection.
# [10] = system: E. coli 131119 (TEM-1, OXA-48); assay: MIC of compounds alone, broth microdilution; format: cell-based; details: Escherichia coli; strain 131119 (E. coli); read-out: MIC compounds of the invention alone
# Description: as §1, §2
# [11] = system: E. coli 190317 (TEM-1, SHV-12, CTX-M-15, OXA-1); assay: MIC of compounds alone, broth microdilution; format: cell-based; details: Escherichia coli, read-out: MIC compounds of the invention alone
# Description: as §1, §2
# [12] = system: E. coli RGN238 (OXA-1); assay: MIC of compounds alone, broth microdilution; format: cell-based; details: Escherichia coli; strain RGN238 (E. coli); read-out: MIC compounds of the invention alone
# Description: as §1, §2
# [13] = system: K. pneumoniae 6299 (TEM-1, SHV-11, OXA-163); assay: MIC of compounds alone, broth microdilution; format: cell-based; details: Klebsiella pneumoniae; strain 6299 (K. pneumoniae); read-out: MIC compounds of the invention alone
# Description: as §1, §2
# [14] = system: K. pneumoniae BAA-1898 (TEM-1, SHV-11, SHV-12, KPC-2); assay: MIC of compounds alone, broth microdilution; format: cell-based; details: Klebsiella pneumoniae, BAA1898; strain BAA-1898 (K. pneumoniae); read-out: MIC compounds of the invention alone
# Description: as §1, §2
# [15] = system: P. aeruginosa CIP107051 (TEM-24); assay: MIC of compounds alone, broth microdilution; format: cell-based; details: Pseudomonas aeruginosa; strain CIP107051 (P. aeruginosa); read-out: MIC compounds of the invention alone
# Description: as §1, §2
# [16] = target: AmpC (P99) (Enterobacter cloacae, UniProt P05364); assay: β-lactamase inhibitory activity, determination of IC50 (nitrocefin hydrolysis)
# Sequence of AmpC (P99) (P05364 21-381): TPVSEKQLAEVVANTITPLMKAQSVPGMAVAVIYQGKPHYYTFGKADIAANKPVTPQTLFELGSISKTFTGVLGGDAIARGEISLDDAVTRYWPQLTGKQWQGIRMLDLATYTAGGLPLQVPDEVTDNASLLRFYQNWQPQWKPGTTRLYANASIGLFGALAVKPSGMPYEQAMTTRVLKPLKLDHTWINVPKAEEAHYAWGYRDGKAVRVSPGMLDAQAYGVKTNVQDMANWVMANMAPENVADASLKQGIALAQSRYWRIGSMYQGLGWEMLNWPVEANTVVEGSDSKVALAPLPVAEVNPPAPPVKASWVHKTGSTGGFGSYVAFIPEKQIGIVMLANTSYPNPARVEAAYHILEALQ
# [17] = target: AmpC P. aeruginosa (Pseudomonas aeruginosa, UniProt P24735); assay: as above
# Sequence of AmpC P. aeruginosa (P24735 27-397): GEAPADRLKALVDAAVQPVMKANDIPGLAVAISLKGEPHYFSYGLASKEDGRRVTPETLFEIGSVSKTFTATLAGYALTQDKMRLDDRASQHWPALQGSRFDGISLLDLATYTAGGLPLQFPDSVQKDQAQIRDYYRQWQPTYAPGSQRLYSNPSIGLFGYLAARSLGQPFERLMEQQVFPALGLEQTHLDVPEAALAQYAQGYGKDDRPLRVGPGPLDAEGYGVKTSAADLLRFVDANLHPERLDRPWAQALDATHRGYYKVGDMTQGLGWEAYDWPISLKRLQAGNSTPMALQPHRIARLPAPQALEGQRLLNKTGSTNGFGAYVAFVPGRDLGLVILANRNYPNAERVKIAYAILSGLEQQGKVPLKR
# T1 sequence (P62593 24-286 limits assumed): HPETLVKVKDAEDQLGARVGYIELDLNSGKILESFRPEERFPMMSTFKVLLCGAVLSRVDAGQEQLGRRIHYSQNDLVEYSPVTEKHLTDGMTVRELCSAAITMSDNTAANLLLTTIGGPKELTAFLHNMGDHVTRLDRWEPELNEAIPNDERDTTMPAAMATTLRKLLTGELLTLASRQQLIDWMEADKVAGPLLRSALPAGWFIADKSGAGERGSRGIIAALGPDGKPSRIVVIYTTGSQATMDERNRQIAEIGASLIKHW
SMILES,IC50 [1],IC50 [2],IC50 [3],IC50 [4],IC50 [5],IC50 [6],IC50 [7],IC50 [8],MIC [9],MIC [10],MIC [11],MIC [12],MIC [13],MIC [14],MIC [15],IC50 [16],IC50 [17]
"O=C1N2CC(c3nc4ccccc4s3)=CC(C2)N1OS(=O)(=O)[O-].[Na+] (stereo not shown) [Example 27, Sodium [3-(1,3-benzothiazol-2-yl)-7-oxo-1,6-diazabicyclo[3.2.1]oct-3-en-6-yl] sulfate]",0.21 nM,2.1 nM,1.4 nM,2.7 nM,560 nM,150 nM,99 nM,6.4 nM,> 32 µg/mL,> 32 µg/mL,> 32 µg/mL,> 32 µg/mL,> 32 µg/mL,> 32 µg/mL,> 32 µg/mL,9.1 nM,68 nM
"Cn1cc(C2=CC3CN(C2)C(=O)N3OS(=O)(=O)[O-])ccc1=O.[Na+] (stereo not shown) [Example 28, Sodium [3-(1-methyl-6-oxo-3-pyridyl)-7-oxo-1,6-diazabicyclo[3.2.1]oct-3-en-6-yl] sulfate]",1.6 nM,3.8 nM,4.4 nM,6.5 nM,1000 nM,430 nM,18 nM,54 nM,> 32 µg/mL,> 32 µg/mL,> 32 µg/mL,> 32 µg/mL,> 32 µg/mL,> 32 µg/mL,> 32 µg/mL,77 nM,520 nM
"O=C1N2CC=C(c3cnsc3)C(C2)N1OS(=O)(=O)[O-].[Na+] (stereo not shown) [Example 29, Sodium [4-(isothiazol-4-yl)-7-oxo-1,6-diazabicyclo[3.2.1]oct-3-en-6-yl] sulfate]",11 nM,20 nM,5.8 nM,150 nM,330 nM,1700 nM,91 nM,2.8 nM,> 32 µg/mL,> 32 µg/mL,> 32 µg/mL,> 32 µg/mL,> 32 µg/mL,> 32 µg/mL,> 32 µg/mL,950 nM,1200 nM
"O=C1N2CC=C(c3cscn3)C(C2)N1OS(=O)(=O)[O-].[Na+] (stereo not shown) [Example 31, sodium [4-(thiazol-4-yl)-7-oxo-1,6-diazabicyclo[3.2.1]oct-3-en-6-yl] sulfate]",4.9 nM,11 nM,5.5 nM,360 nM,1100 nM,990 nM,97 nM,2.3 nM,16 µg/mL,16 µg/mL,16 µg/mL,> 32 µg/mL,> 32 µg/mL,> 32 µg/mL,> 32 µg/mL,940 nM,1500 nM
"NCc1ncc(C2=CCN3CC2N(OS(=O)(=O)O)C3=O)s1 (stereo not shown) [Example 32, [4-[2-(aminomethyl)thiazol-5-yl]-7-oxo-1,6-diazabicyclo[3.2.1]oct-3-en-6-yl] hydrogen sulfate]",7.5 nM,33 nM,14 nM,300 nM,670 nM,3500 nM,170 nM,8.9 nM,16 µg/mL,> 32 µg/mL,8 µg/mL,> 32 µg/mL,> 32 µg/mL,> 32 µg/mL,> 32 µg/mL,4400 nM,3200 nM
